Test results taken from article PMC7407822, “Aldose Reductase Differential Inhibitors in Green Tea” (Biomolecules, 2020).
Where two headings read alike, the source gives them in different places.

What was measured:
human recombinant AKR1B1 [1] = biological target: T1, human recombinant AKR1B1 (Homo sapiens, UniProt P15121); assay: AKR1B1 activity assay (NADPH oxidation at 340 nm), dose-dependent inhibition, IC50; format: biochemical
T1 construct: made in house
Procedure: One unit of enzyme activity is the amount of enzyme that catalyzes the conversion of 1 µmol of substrate/min in the above assay conditions.
The human recombinant AKR1B1 was expressed and purified to electrophoretic homogeneity, as previously described. […] The purified enzyme was stored at −80 °C in a 10 mM sodium phosphate buffer pH 7.0 containing 2 mM DTT and 30% (w/v) glycerol. Before use, AKR1B1 was extensively dialyzed against 10 mM of a sodium phosphate buffer pH 7.0.

human recombinant AKR1B1 [2] = biological target: T1, human recombinant AKR1B1; assay: Steady state inhibition kinetic analysis (Hanes-Woolf and secondary plots); format: biochemical; conditions: for Ki’ (appK’i, ESI complex dissociation constant) / Ki: mean ± SD; for Ki: read-out: Ki (appKi, EI complex dissociation constant)
Procedure: The AKR1B1 activity was determined at 37 °C, as previously described, monitoring the decrease in absorbance at 340 nm linked to NADPH oxidation (ε340 = 6.22 mM^−1.cm^−1) using a Biochrom Libra S60 spectrophotometer. The standard assay mixture (0.7 mL) contained in a 0.25 M sodium phosphate buffer pH 6.8, 0.18 mM NADPH, 0.4 M ammonium sulfate, 0.5 mM EDTA, and 4.7 mM GAL. One unit of enzyme activity is the amount of enzyme that catalyzes the conversion of 1 µmol of substrate/min in the above assay conditions.
The kinetic analysis of the experimental rate measurements with different substrates (S) in the presence of inhibitors (I) was performed on the classical inhibition model of action. Here, (I) is considered to intervene into a steady state condition of the reaction, being free to interact with the free enzyme (E), the ES complex or with both, through a rapid equilibrium. Data were analyzed by Hanes-Woolf plots. The apparent dissociation constants ^appKi’ (for the ESI complex) and ^appKi (for the EI complex) were determined from secondary plots of 1/^appVmax and ^appKM/^appVmax as a function of the inhibitor concentration, respectively.

AKR1B1 = conditions: known inhibitor co-crystallized with AKR1B1, PDB code 4IGS; cited from earlier work
[3] = 8 mM L-idose, 0.03 mM HNE, 0.07 mM GSHNE

SMILES	ARDI action (differential inhibition of L-idose and GSHNE reduction with respect to HNE) (human recombinant AKR1B1 [1]; [3])	IC50 (human recombinant AKR1B1 [1]; IC50, GSHNE reduction, 0.07 mM GSHNE, 8 mU AKR1B1, 37 °C, pH 6.8) [µM]	IC50 (human recombinant AKR1B1 [1]; IC50, HNE reduction, 0.03 mM HNE, 8 mU AKR1B1, 37 °C, pH 6.8) [µM]	IC50 (human recombinant AKR1B1 [1]; IC50, L-idose reduction, 8 mM L-idose, 8 mU AKR1B1, 37 °C, pH 6.8) [µM]	type (model) of inhibition (human recombinant AKR1B1 [2]; substrate GSHNE)	Ki’ (appK’i, ESI complex dissociation constant) (human recombinant AKR1B1 [2]; substrate GSHNE) [µM]	type (model) of inhibition (human recombinant AKR1B1 [2]; substrate HNE)	Ki’ (appK’i, ESI complex dissociation constant) (human recombinant AKR1B1 [2]; substrate HNE) [µM]	type (model) of inhibition (human recombinant AKR1B1 [2]; substrate L-idose)	Ki’ (appK’i, ESI complex dissociation constant) (human recombinant AKR1B1 [2]; substrate L-idose) [µM]	residual activity for HNE reduction, of activity in the absence of inhibitor (human recombinant AKR1B1 [1]; 0.03 mM HNE, at EGCG concentrations equal to its IC50 for L-idose and GSHNE ([…] and […]))	IC50 (human recombinant AKR1B1 [1]; read-out: IC50 values, unaffected by the nature of the substrate) [µM]	Ki (human recombinant AKR1B1 [2]; substrate GSHNE) [µM]	Ki/Ki’ (human recombinant AKR1B1 [2]; substrate HNE)	Ki (human recombinant AKR1B1 [2]; substrate HNE) [µM]	Ki/Ki’ (human recombinant AKR1B1 [2]; substrate L-idose)	activity as AKR1B1 inhibitor (AKR1B1)
O=C(O)c1cc(O)c(O)c(O)c1 [GA, gallic acid]	still able to act as an ARDI	2500	586	196	apparent uncompetitive model of action	793 ± 102	apparent uncompetitive model of action	253 ± 23	apparent uncompetitive model of action	103 ± 7	–	–	–	–	–	–	–
O=C(O[C@@H]1Cc2c(O)cc(O)cc2O[C@@H]1c1cc(O)c(O)c(O)c1)c1cc(O)c(O)c(O)c1 [EGCG, epigallocatechin gallate]	comparable significant (p < 0.0001) ARDI action	–	–	–	apparently purely non-competitive type of inhibition	144 ± 22	typical uncompetitive model of action	116 ± 11	mixed type of inhibition	61 ± 9	80–90%	–	–	–	–	–	–
Oc1cc(O)c2c(c1)O[C@H](c1cc(O)c(O)c(O)c1)[C@H](O)C2 [EGC, epigallocatechin]	completely ineffective as ARDI	–	–	–	competitive inhibitor	–	–	686 ± 63	–	496 ± 35	–	500 to 700	553 ± 87	2.5	1680 ± 289	2.5	–
Oc1c(F)c(F)c(-c2c(F)c(F)c(O)c(F)c2F)c(F)c1F [JF0064]	–	–	–	–	–	–	–	–	–	–	–	–	–	–	–	–	very active at sub micromolar levels
